Measurements: ChEMBL document CHEMBL1201862, “PubChem BioAssay data set” (2004)
Calls of active or inactive are those of the source.

Columns and labels:
[1] = cells; type: functional, cell-based
[2] = target: T1, Trace amine-associated receptor 1 (Homo sapiens, UniProt Q96RJ0); experiment: Fluorescence-based cell-based high throughput dose response assay to identify agonists of the human trace amine associated receptor 1 (TAAR1).; type: functional
T1 sequence (Q96RJ0 whole entry): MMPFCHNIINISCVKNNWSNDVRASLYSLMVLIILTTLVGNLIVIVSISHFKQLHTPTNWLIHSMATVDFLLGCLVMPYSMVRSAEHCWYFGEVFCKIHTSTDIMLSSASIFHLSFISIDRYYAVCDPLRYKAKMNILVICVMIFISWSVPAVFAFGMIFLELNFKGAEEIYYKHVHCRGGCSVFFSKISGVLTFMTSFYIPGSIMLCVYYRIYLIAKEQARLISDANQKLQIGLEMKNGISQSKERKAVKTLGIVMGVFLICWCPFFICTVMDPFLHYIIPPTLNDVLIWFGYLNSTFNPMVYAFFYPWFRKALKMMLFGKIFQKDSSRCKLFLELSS

[3] = target: T1, Trace amine-associated receptor 1; experiment: Counterscreen for agonists of the human trace amine associated receptor 1 (hTAAR1): Fluorescence-based cell-based high throughput dose response assay to identify hTAAR1 agonist that also desensitize TAAR1 receptor response.; type: functional
[4] = cells; type: functional, cell-based; remark: listed apart in the source
[5] = cells; type: functional, cell-based; remark: listed apart in the source
[6] = cells; type: functional, cell-based; remark: listed apart in the source
[7] = target: ADP-ribosylation factor GTPase-activating protein 1 (Rattus norvegicus, UniProt Q62848); experiment: Fluorescence polarization-based biochemical high throughput dose response screening assay to identify inhibitors of ADP-ribosylation factor GTPase activating protein 1 (ARFGAP1).; type: functional
[8] = target: Arf-GAP with SH3 domain, ANK repeat and PH domain-containing protein 1 (Homo sapiens, UniProt Q9ULH1); type: functional;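 further: biochemical fluorescence polarization dose–response screen measuring inhibition of ASAP1; ASAP1 GAP domain stimulating GTP hydrolysis by truncated human ARF1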
[9] = growth suppression of PTEN-null colon cells, dose response, cell-based, HCT116 PTEN knockout (AID 1047); type: functional;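 further: HCT116 colon tumor cells with PTEN knocked out; cells exposed to compound for 60 hours before readout; potency for loss of cell viability measured by luminescence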
[10] = growth suppression of beta-catenin-knockout colon cells, dose response, cell-based, HCT116, human colon tumor (AID 1045); type: functional;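 further: HCT116 colon tumor cells with beta catenin knocked out; cells exposed to compound for 60 hours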
[11] = target: 26S proteasome non-ATPase regulatory subunit 14 (Homo sapiens, UniProt O00487); experiment: inhibition of proteasome subunit RPN11 – biochemical, fluorescence polarization, uHTS hits, confirmation (AID 602368); type: functional
[12] = target: 72 kDa type IV collagenase (Homo sapiens, UniProt P08253); experiment: Dose Response validation of uHTS RPN11 inhibitor hits using a MMP-2 Fluorescence assay.; type: functional
[13] = target: Prothrombin (Bos taurus, UniProt P00735); experiment: thrombin inhibition, dose response, biochemical, fluorescence polarization, uHTS hits (AID 602369); type: functional
[14] = tested on: HEK293; experiment: NOD1 signaling inhibitors, primary screen, cell-based, luminescence, uHTS (AID 1578); type: functional; conditions: Homo sapiens
[15] = tested on: HEK293; experiment: cells; type: functional, cell-based; conditions: Homo sapiens
[16] = tested on: HEK293; experiment: cells; type: functional, cell-based; conditions: Homo sapiens; remark: listed apart in the source
[17] = tested on: HEK293; experiment: NOD2 signaling inhibitors in MDP-stimulated cells, cell-based, uHTS, luminescence (AID 2001); type: functional; conditions: Homo sapiens
[18] = inhibitors of intracellular T. cruzi replication, confirmation, NIH3T3 host cells, beta-gal luminescence (AID 2044); type: functional, cell-based;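 further: intracellular parasites grown in NIH/3T3 mouse fibroblasts as host cells; luminescent beta-galactosidase reporter signal from transgenic T. cruzi replicating inside host cells; inhibitors lower the luminescence signal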
[19] = cytotoxicity toward NIH3T3 fibroblasts, dose response, counter-screen, cell-based, ATP luminescence, mouse fibroblasts (AID 2010); type: functional;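 further: cells exposed to compound for about 90 hours before reading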
[20] = target: T2, Methionyl-tRNA synthetase, putative (Trypanosoma brucei brucei, UniProt Q38C91); type: functional, Trypanosoma brucei brucei strain 927/4 GUTat10.1
T2 sequence (Q38C91 whole entry): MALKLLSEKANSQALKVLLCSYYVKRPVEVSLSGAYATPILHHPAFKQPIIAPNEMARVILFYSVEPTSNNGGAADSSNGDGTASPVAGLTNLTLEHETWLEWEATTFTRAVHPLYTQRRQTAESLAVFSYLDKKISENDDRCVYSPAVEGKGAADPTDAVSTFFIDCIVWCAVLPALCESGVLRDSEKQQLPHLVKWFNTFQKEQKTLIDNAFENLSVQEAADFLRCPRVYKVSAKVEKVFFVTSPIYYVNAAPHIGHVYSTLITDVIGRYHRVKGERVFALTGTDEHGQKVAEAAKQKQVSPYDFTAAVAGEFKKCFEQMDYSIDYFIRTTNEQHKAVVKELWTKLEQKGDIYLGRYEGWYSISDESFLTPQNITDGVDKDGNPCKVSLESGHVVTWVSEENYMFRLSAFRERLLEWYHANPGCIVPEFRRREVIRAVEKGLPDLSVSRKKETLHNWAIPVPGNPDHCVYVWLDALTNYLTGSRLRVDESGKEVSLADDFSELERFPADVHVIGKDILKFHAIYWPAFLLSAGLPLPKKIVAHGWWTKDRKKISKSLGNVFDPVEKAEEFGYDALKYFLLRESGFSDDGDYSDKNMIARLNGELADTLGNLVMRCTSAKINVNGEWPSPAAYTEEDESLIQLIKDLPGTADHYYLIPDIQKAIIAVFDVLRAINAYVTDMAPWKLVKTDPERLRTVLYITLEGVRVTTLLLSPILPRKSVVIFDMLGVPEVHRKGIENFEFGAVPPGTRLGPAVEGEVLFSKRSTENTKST

[21] = Counterscreen for inhibitors of Trypanosoma brucei methionyl tRNA synthetase (MetRS): Luminescence-based cell-based high throughput dose response assay to identify compounds that are cytotoxic to Jurkat human T lymphocyte cells.; type: functional
[22] = target: T2, Methionyl-tRNA synthetase, putative; type: functional, Trypanosoma brucei brucei strain 927/4 GUTat10.1; remark: listed apart in the source
[23] = target: T3, Beta-galactosidase (Escherichia coli, UniProt Q8VNN2); experiment: Dose response counterscreen for EBI2 assay utilizing the enzyme, b-galactosidase.; type: functional
[24] = target: Albumin (Bos taurus, UniProt P02769); experiment: Counterscreen for inhibitors of T-cell receptor (TCR)-CD3 interaction: Fluorescence-based biochemical high throughput dose response assay to identify inhibitors of T-cell receptor (TCR)-CD3 interaction using a TAMRA-labeled BSA probe.; type: functional
[25] = Luminescence Cell-Based Dose Retest to Confirm Inhibitors of Cancer Stem Cells. [Related pubchem assays (depositor defined):AID2717, AID2721]; type: functional; conditions: Homo sapiens
[26] = CFTR ΔF508 corrector activity in bronchial cells, dose response, human bronchial epithelial cells, plate reader, cherry-pick, two tests (AID 743267); type: functional, cell-based
[27] = target: T3, Beta-galactosidase; experiment: PubChem AID 485352; type: functional
[28] = target: T4, Type-1 angiotensin II receptor (Homo sapiens, UniProt P30556); experiment: AT1 receptor antagonists, dose response, selectivity assay for APJ receptor antagonist project, cell-based, uHTS hits (AID 463214); type: functional;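 further: antagonist potency against angiotensin II stimulated AT1 response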
T4 sequence (P30556 whole entry): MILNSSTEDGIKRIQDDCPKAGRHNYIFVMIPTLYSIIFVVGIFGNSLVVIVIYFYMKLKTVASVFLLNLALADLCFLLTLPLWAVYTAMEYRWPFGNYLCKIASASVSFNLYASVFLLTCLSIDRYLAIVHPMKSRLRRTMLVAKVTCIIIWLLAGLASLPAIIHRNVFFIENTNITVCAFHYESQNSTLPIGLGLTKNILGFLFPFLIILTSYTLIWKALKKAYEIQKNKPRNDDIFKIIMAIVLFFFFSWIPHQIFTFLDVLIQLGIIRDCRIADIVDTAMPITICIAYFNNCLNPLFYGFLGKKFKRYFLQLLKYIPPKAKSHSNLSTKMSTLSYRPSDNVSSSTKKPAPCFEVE

[29] = target: T5, Microphthalmia-associated transcription factor (Homo sapiens, UniProt O75030); experiment: TRPM1 promoter luciferase signal decrease, dose response, MITF inhibitor project, cell-based, SK-MEL-5, cherry-picked, set 3 (AID 493073); type: functional
T5 sequence (O75030 whole entry): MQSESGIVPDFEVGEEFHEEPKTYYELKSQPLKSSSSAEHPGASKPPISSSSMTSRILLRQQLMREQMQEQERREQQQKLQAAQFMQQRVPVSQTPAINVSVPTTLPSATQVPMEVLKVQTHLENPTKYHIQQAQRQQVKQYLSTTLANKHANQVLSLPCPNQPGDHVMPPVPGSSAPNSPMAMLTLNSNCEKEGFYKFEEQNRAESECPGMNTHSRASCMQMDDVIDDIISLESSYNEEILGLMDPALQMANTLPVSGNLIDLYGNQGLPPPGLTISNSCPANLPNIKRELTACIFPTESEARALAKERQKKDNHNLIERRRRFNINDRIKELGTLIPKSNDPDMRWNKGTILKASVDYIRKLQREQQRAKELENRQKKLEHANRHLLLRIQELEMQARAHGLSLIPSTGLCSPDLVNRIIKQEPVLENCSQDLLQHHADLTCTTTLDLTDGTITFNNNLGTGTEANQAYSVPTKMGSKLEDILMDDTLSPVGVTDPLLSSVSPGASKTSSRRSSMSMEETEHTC

[30] = target: SWI/SNF-related matrix-associated actin-dependent regulator of chromatin subfamily A member 2 (Homo sapiens, UniProt P51531); experiment: Luminescence-based cell-based high throughput dose response assay to identify activators of the function of SWI/SNF related, matrix associated, actin dependent regulator of chromatin, subfamily a, member 2 (SMARCA2, BRM).; type: functional
[31] = Counterscreen for activators of the function of SWI/SNF related, matrix associated, actin dependent regulator of chromatin, subfamily a, member 2 (SMARCA2, BRM): Luminescence-based cell-based high throughput dose response assay to identify non-selective compounds using the VP16 reporter assay.; type: functional
[32] = target: Paired box protein Pax-8 (Homo sapiens, UniProt Q06710); experiment: inhibitors of PAX8-driven TPO luciferase reporter, dose response, RMG-I cells, cherry-pick (AID 687027); type: functional, cell-based;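 further: luciferase reporter driven by Pax8 target thyroperoxidase promoter measured by SteadyGlo luminescence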
[33] = NIH:OVCAR-3 ovarian cancer cell cytotoxicity, dose response, PAX8 inhibitor project, plate reader, dry powder samples (AID 743044); type: functional, cell-based
[34] = IGROV1 ovarian cancer cell cytotoxicity, dose response, PAX8 inhibitor project, plate reader, dry powder samples (AID 743043); type: functional, cell-based; conditions: IGROV-1
[35] = cytotoxicity in OVCAR8 ovarian cancer cells, dose response, PAX8 project, cell-based, plate reader, dry powder samples (AID 743197); type: functional; conditions: OVCAR-8
[36] = IOSE-T80 ovarian epithelial cell cytotoxicity, dose response, cytotoxicity control for PAX8 inhibitor project, plate reader, dry powder samples (AID 743045); type: functional, cell-based

T3 sequence (Q8VNN2 whole entry): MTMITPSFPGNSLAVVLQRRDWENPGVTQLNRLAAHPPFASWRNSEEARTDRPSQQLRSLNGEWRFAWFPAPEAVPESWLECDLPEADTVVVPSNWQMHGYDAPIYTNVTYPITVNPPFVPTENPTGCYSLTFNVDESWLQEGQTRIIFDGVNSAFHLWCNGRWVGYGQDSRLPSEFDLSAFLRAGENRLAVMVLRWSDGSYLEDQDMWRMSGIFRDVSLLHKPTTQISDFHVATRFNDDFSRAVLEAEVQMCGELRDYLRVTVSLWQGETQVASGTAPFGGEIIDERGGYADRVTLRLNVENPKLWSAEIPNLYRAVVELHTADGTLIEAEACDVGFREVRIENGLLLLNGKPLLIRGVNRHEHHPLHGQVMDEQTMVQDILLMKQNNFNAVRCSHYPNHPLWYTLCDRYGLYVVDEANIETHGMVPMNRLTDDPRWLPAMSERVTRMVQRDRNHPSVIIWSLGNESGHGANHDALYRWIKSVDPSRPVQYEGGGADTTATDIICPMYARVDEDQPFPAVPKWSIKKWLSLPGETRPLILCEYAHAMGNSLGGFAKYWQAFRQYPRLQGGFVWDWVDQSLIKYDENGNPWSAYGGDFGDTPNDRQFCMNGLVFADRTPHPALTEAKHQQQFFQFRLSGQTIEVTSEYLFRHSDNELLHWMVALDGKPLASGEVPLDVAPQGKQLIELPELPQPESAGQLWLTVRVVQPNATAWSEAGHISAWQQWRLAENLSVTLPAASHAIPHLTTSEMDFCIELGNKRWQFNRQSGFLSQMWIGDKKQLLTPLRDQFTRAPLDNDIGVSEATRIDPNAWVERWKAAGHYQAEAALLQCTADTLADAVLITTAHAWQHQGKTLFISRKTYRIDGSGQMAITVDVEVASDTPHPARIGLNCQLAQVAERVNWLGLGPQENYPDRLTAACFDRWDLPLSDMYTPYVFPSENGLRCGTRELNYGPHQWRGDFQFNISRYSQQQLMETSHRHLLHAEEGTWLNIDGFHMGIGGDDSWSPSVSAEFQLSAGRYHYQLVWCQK
Chain of SWI/SNF-related matrix-associated actin-dependent regulator of chromatin subfamily A member 2 (P51531 whole entry): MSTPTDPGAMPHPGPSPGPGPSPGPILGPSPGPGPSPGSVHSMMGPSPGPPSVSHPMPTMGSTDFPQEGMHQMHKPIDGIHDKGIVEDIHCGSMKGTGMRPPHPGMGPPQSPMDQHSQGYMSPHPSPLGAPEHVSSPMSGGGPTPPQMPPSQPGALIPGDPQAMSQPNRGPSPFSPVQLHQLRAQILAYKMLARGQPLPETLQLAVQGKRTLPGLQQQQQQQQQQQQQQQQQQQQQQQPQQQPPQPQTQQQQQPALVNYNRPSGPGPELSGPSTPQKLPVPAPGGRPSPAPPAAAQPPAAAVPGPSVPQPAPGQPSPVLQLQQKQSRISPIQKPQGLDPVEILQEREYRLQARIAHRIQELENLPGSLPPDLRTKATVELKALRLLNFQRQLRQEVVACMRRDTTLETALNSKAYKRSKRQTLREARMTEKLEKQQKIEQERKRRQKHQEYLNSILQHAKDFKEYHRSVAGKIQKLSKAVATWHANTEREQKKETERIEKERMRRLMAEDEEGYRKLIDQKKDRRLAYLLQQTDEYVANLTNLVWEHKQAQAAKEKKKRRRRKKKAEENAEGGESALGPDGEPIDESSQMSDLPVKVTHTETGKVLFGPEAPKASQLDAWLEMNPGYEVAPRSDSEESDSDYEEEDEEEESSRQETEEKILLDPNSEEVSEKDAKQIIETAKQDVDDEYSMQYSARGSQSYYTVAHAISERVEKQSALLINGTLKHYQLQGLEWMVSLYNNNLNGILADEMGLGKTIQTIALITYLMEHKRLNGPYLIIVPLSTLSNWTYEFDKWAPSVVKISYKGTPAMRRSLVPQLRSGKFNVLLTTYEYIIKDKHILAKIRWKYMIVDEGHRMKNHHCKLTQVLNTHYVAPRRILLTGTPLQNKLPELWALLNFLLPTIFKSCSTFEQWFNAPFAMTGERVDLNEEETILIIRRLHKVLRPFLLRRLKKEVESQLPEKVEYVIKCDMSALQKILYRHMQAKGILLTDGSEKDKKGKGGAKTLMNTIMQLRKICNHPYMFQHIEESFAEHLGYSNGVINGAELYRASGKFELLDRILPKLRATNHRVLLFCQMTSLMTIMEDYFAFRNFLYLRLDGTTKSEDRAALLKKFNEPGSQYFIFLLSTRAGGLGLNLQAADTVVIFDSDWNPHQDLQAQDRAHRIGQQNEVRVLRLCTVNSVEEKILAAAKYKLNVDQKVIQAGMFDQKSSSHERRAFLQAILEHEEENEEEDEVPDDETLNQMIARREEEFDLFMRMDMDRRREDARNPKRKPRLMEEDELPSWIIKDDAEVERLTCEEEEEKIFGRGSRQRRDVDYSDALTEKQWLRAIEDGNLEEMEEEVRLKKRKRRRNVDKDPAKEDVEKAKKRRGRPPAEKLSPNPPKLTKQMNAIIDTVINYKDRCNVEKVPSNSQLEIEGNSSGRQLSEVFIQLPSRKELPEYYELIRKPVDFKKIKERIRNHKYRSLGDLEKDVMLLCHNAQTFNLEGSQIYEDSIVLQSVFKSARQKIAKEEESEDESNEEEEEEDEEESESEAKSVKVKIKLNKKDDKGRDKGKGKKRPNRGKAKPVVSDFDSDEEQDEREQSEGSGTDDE
Chain of Arf-GAP with SH3 domain, ANK repeat and PH domain-containing protein 1 (Q9ULH1 whole entry, the tested form may be a part): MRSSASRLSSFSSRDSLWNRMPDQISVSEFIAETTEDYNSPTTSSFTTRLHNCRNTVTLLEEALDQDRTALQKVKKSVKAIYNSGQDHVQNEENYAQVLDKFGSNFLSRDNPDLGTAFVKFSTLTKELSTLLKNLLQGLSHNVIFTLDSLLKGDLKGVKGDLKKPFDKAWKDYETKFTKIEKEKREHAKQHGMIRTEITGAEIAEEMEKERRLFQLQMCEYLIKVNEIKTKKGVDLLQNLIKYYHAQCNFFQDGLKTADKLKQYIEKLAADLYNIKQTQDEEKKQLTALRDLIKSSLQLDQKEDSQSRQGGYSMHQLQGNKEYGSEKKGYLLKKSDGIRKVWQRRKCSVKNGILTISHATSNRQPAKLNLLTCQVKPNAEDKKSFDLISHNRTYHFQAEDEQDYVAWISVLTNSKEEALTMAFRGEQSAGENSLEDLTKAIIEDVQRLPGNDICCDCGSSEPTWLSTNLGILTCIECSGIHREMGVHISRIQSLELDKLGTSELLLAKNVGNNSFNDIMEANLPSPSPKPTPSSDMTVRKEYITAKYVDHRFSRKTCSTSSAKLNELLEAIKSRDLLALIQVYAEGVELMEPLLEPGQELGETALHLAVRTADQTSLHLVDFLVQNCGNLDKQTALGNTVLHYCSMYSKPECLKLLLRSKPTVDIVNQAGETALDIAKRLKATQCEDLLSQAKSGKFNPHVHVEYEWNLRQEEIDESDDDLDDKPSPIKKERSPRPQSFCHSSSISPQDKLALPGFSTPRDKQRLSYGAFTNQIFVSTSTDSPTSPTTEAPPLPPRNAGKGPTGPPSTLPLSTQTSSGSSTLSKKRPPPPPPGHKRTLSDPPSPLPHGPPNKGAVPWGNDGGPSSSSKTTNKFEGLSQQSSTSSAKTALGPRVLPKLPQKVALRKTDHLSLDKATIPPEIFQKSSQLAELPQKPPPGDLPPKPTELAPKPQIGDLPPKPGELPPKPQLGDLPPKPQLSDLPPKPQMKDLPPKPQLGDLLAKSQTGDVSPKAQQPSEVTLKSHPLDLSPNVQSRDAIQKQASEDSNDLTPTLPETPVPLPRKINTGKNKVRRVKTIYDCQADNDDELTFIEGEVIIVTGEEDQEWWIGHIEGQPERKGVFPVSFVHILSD
Chain of Paired box protein Pax-8 (Q06710 whole entry): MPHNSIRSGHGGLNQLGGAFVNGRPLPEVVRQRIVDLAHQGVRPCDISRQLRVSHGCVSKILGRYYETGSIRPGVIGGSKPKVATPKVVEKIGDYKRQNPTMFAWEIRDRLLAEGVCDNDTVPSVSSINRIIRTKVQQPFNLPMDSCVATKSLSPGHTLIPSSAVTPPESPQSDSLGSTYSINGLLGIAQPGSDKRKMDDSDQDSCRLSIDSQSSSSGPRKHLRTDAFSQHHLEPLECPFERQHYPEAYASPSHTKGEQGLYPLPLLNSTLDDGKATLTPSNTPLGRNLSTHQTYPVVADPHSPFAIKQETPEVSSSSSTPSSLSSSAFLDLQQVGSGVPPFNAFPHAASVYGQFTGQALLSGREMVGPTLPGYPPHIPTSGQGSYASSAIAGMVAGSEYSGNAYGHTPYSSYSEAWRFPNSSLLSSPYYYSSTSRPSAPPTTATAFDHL
Chain of ADP-ribosylation factor GTPase-activating protein 1 (Q62848 whole entry, the tested form may be a part): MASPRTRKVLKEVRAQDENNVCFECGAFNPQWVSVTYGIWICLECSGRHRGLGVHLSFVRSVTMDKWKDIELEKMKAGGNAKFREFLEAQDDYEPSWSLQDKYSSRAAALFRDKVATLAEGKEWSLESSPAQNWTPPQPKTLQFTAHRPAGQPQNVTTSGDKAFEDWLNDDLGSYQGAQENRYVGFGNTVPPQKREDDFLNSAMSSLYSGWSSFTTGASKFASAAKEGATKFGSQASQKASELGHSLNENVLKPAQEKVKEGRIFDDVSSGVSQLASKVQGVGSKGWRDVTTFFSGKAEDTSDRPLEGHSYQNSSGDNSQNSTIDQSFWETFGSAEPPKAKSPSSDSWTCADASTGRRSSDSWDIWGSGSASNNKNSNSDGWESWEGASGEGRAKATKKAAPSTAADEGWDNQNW
Chain of 26S proteasome non-ATPase regulatory subunit 14 (O00487 whole entry): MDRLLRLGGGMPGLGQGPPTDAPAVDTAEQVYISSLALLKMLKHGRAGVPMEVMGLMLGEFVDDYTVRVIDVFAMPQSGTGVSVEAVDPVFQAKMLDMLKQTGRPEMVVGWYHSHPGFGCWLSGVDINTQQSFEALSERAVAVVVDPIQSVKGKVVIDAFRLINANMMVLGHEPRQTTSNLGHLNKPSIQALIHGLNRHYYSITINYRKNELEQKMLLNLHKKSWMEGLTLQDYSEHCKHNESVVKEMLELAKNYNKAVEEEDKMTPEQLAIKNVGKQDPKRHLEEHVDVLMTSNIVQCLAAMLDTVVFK

OC(COC(c1ccc(F)cc1)c1ccc(F)cc1)CN1CCCC(C(F)(F)F)C1 (configuration not stated)
IC50 [1]: > 29.9 µM (inactive) | EC50 [2]: 2.52 µM (active) | IC50 [3]: 8.46 µM (active) | EC50 [4]: > 29.9 µM (inactive)

Cc1ccc2nc(SCC(=O)N3CCCCCC3)nc(=O)n2c1
EC50 [5]: > 350 µM (not active) | EC50 [6]: > 350 µM (not active) | IC50 [7]: 23.1 µM (inactive) | IC50 [8]: 30.7 µM (inactive)

Nc1nc(SCc2ccc(Cl)cc2Cl)nc2nc3c(cc12)CCCC3
EC50 [9]: 14.4 µM (active) | EC50 [10]: 13.3 µM (active) | IC50 [11]: 41.4 µM (active) | IC50 [12]: > 100 µM (inactive) | IC50 [13]: 39.2 µM (active) | IC50 [7]: 23.8 µM (inactive) | IC50 [8]: 17.7 µM (inactive)

COc1ccccc1NS(=O)(=O)c1cccc(NC(=O)Nc2ccc(Cl)cc2)c1
EC50 [14]: > 20 µM (inactive) | IC50 [15]: 6.59 µM (active) | IC50 [16]: 7.01 µM (active) | IC50 [17]: 5.81 µM (inactive) | EC50 [18]: 1.8 µM (active) | EC50 [19]: > 60 µM (not active) | IC50 [20]: 39.5 µM (inactive) | IC50 [21]: 65.3 µM (inactive) | IC50 [22]: 5.53 µM (active)

CCOC(=O)C1CCN(C(=O)c2cc3c(ccc4ccccc43)o2)CC1
IC50 [23]: > 80 µM (inactive)

N#Cc1ccc(CSc2nnc(Nc3ccccc3)s2)cc1
IC50 [20]: 119 µM (inactive) | IC50 [21]: 83.3 µM (inactive) | IC50 [22]: 7.66 µM (active)

NS(=O)(=O)c1ccc(CCNC(=O)C2CCC(CNS(=O)(=O)c3ccc(Br)s3)CC2)cc1 (configuration not stated)
IC50 [1]: > 29.9 µM (inactive) | EC50 [2]: > 29.9 µM (inactive) | IC50 [3]: 1.16 µM (active) | EC50 [4]: > 29.9 µM (inactive)

O=C(CCCN1C(=O)/C(=C/c2cccs2)SC1=S)NNC(=O)c1ccccc1O
IC50 [24]: > 94.1 µM (inactive)

CN(C)CCn1c2ccccc2c2nc3ccc([N+](=O)[O-])cc3cc21
AC50 [25]: 2.35 µM (active) | AC50 [26]: 55.7 µM (active)

Cc1ccc(C(=O)CNc2ccc(Br)cc2)cc1
EC50 [27]: > 40 µM (inactive) | IC50 [28]: 7.47 µM (active) | IC50 [23]: > 80 µM (inactive)

CCN1CCN(c2ccc(S(=O)(=O)N3CCCCC3)cc2NC(=O)/C=C/c2ccc([N+](=O)[O-])cc2)CC1
AC50 [29]: 7.51 µM (active) | EC50 [30]: > 91.2 µM (inactive) | EC50 [31]: > 91.2 µM (inactive)

NS(=O)(=O)c1ccc(S(=O)(=O)N(CCc2ccccc2)Cc2ccccn2)cc1
AC50 [26]: < 0.0235 µM (active)

C[C@@H]1CCCCO[C@H](CN(C)C(=O)Nc2ccc(C(F)(F)F)cc2)[C@@H](C)CN([C@@H](C)CO)C(=O)c2cc(NS(=O)(=O)c3ccc(Cl)cc3)ccc2O1
AC50 [32]: 3.44 µM (active) | AC50 [33]: 29.1 µM (active) | AC50 [34]: 46.1 µM (active) | AC50 [35]: 36.2 µM (active)

COc1ccc(-c2ccc3c(c2)[C@H]2[C@H](CCN2S(=O)(=O)c2ccc(OC)cc2)[C@@H](CO)N3C)cc1
AC50 [32]: 9.39 µM (active) | AC50 [36]: 38.1 µM (active) | AC50 [33]: 15.6 µM (active) | AC50 [35]: 34.7 µM (active)

N#C/C(=N/Nc1ccccc1F)C(=N)N1CCOCC1
EC50 [30]: > 91.2 µM (inactive) | EC50 [31]: > 91.2 µM (inactive)
